# Assay results taken from the NIST ThermoML archive (doi:10.1016/j.jct.2008.07.024).
# Several values for one entry are separate records, joined by “and”; a condition that tells them apart may be missing. Equal entries are not always repeated. Numbers after ± are expanded uncertainties.
# Details: Liquid, Closed cell (Static) method
SMILES,vapor or sublimation pressure (303.15 K) [kPa],vapor or sublimation pressure (313.15 K),vapor or sublimation pressure (323.15 K)
CCCCCCC [heptane],7.92 ± 0.03,12.24 ± 0.03 kPa,18.91 ± 0.04 kPa
CCCOCCO [2-propoxyethanol],0.45 ± 0.02,0.87 ± 0.02 kPa and 0.89 ± 0.02 kPa,1.59 ± 0.02 kPa and 1.61 ± 0.02 kPa
CCCCCC [hexane],25.16 ± 0.05,37.42 ± 0.07 kPa,54.11 ± 0.1 kPa
